What was measured:
rat NOS1 = experiment: Anaerobic reduction of paraquat by NOS1 at 600 nm; Hanes plot; format: biochemical
Protocol: Anaerobic reduction of paraquat by NOS1 to paraquat.^+ was followed at 600 nm spectrophotometrically and converted to a concentration using the extinction coefficient E600 =13,700 M^-1 cm^-1. Reactions (1 ml) were performed in the NADPH oxidation buffer described above in the absence of L-arginine, dithiothreitol and tetrahydrobiopterin. Reactions were initiated by the addition of 2 U of NOS1 and followed for 3 minutes at 37° C.

[1] = system: CPA-47 endothelial cell line; experiment: LDH release from endothelial cells (cytotoxicity); format: cell-based; details: 2 mM paraquat, 24 hours; FIG. 2(b)
Protocol: To test whether the above effect was present in intact cells, endothelial cell cultures, constitutively expressing NOS3 protein as determined by western blot analysis, were treated with 2 mM paraquat in the presence of increasing concentrations of either L-NAME or L-NMMA.
The endothelial cells were obtained as follows: CPA-47 endothelial cell line (CRL-1733) was purchased from American Type Culture Collection (Manassas, Va.). Endothelial cells were grown in T-75 flasks containing Ham's F-12 K medium supplemented by 1 mM […] and 10% equine serum (Gibco-BRL, Grand Island, N.Y.). Endothelial cells were plated at 3.5×10^4 cells/well in 24-well plates and experiments were performed 48 hours later when cells were near confluence. Medium was changed to minimal essential medium without serum supplement. Endothelial cells were from passages 30-36.
Cytotoxicity was measured as the percent release of LDH and compared to vehicl-treated cells (basal). The percent release of cytosolic lactate dehydrogenase (LDH) into the culture medium was used to assess the integrity of the cell membrane. LDH activity was measured by following the loss of NADH at 340 nm as described in Day, B. J., et al., J. Pharmacol. Exp. Ther. 275, 1227-1232 (1995). The percent release of LDH into the culture medium 24 hours after the paraquat treatment was used to assess cell injury.

Rabbit aortic rings = experiment: Acetylcholine-induced (EDRF) relaxation of aortic rings
Protocol: Rabbit aortic rings were treated with increasing concentrations of paraquat or L-NAME (2 mM) prior to initiating a constriction response with 1 μM phenylephrine (initial contraction).
New Zealand white male rabbits weighting 3-4 kg were anaesthetized with phenobarbital (30 mg/kg/iv). The descending thoracic aorta was isolated and placed in Krebs-Henseleit buffer (pH 7.4) and stored at 4° C. until used. The vessels were cut into 5 mm rings and submerged in 25 ml double jacketed tissue baths containing Krebs-Henseleit buffer bubbled with 95% oxygen and 5% carbon dioxide at 37° C. Rings were hung on stainless steel stirrups connected to calibrated force transducers. Rings were equilibrated with 2 g resting tension for 1 hour before use and contracted with phenylephrine (1 μM). Rings were incubated with paraquat for 15 minutes before acetylcholine-induced or exogenous relaxations were performed.
Endothelial-derived relaxing factor (EDRF) responses were initiated by addition of acetylcholine.

[2] = system: RAW-264.7 monocyte macrophage cells; experiment: LDH release from macrophages (cytotoxicity); format: cell-based
Protocol: (§1) The RAW-264.7 monocyte macrophage cells line (TIB-71) was purchased from the American Type Culture Collection (Manassas, Va.). The cells were grown in T-75 flasks containing DMEM (Gibco-BRL, Grand Island, N.Y.) supplemented with 1 mM pyruvate, 4.5 g/L glucose and […] fetal bovine serum Macrophages were plated at 2.0×10^4 cells/well in 24-well plates and experiments were performed when cells were near confluence. Macrophages were immunostimulated with 50 ng/ml lipopolysaccharide (LPS) from E. coli serotype 0111:B4 (Signia, St. Louis, Mo.) and 50 U/ml recombinant mouse interferon gamma (INF-γ, R&D Systems, Minneapolis,Minn.). Macrophages were used between passages 2-8. Cell cultures were kept in a 37° C. incubator with air and 5% carbon dioxide.
(§2) NOS2 was induced in RAW cells using a mixture of interferon-γ and lipopolysaccharide (LPS) referred to as "cytomix." Unstimulated (basal) and activated (cytomix) macrophages were treated with 0.1 mM paraquat or not treated with paraquat and cytotoxicity and NO production were assessed at 24 hours.
Cell injury was assessed by measuring LDH release.
(§3) To further exclude the role of peroxynitrite, macrophages were treated with increasing concentrations of the NO-donor, DETA NONOate in the presence of 0.1 mM paraquat. Macrophage cytotoxicity and NO release were assessed 24 hours after treatments. Cell injury was assessed by measuring LDH release.

[3] = system: RAW-264.7 monocyte macrophage cells; experiment: NO production, nitrite plus nitrate, in macrophages; format: cell-based; details: 0.1 mM paraquat, 24 hours
Protocol: as §1, §2
NO production, assessed by measuring the accumulation of the NO metabolites nitrite and nitrate 24 hours after cytomix treatment, is shown in FIG. 4(b). […] NOS2 expression was not affected (data not shown).
as §3

NOS2 = NOS2 expression in macrophages; format: cell-based; details: 0.1 mM paraquat, cytomix; data not shown
Protocol: as §1, §2

aconitase = experiment: Aconitase/fumarase activity ratio in macrophage lysates; format: cell-based; details: 24 hours, FIG. 5
Protocol: Aconitase activity (a sensitive marker of O2^- and peroxynitrite formation) and fumarase activity were measured as described in Patel, M., et al., Nuron 16, 345-355 (1996). Specifically aconitase activity was determined spectrophotometrically by monitoring the formation of cis-aconitate from isocitrate at 240 nm. Fumarase activity was measured by monitoring the increased absorbence at 240 mn following the formation of fumarate from L-malate. Aconitase activity was expressed as a ratio of aconitase activity to flimarase activity in order to correct for differences in cell numbers.
Aconitase activity was measured in cell lysates 24 hours after cytomix, DETA nonoate and paraquat treatments. Macrophages were grown in 24-well plates and treated with cytomix or 250 μM DETA NONOate. Control, activated (cytomix) and DETA NONOate groups were treated with paraquat (0.1 mM) or not treated with paraquat. The results are shown in FIG. 5 where an asterisk indicates a significant difference from control group, p<0.05.

squamous cell carcinoma = experiment: Working Example VI: mouth squamous cell carcinoma patient; format: in vivo, human; details: 5 cc swish and spit, 100 μM
Protocol: A mouth lesion is noted in a smoker during a routine dental visit. The lesion is found to be a squamous cell carcinoma. […] The patient is given a 5 cc solution of paraquat swish and spit (at a dose of 100 μM).

solid tumor = experiment: Working Example VII: solid tumor patient; format: in vivo, human; details: IV infusion 4 milligram per kilogram, seven cycles, after 5,6 MEXAA; two weeks
Protocol: A person is given the anti-tumor agent 5,6 dimethylxanthemone-4-acetic acid (5,6 MEXAA) to treat a solid tumor identified by biopsy on the left lower extremity, and lung. […] At this time, the patient is treated with intravenous infusion of paraquat (4 milligram per kilogram) for seven cycles.

C[n+]1ccc(-c2cc[n+](C)cc2)cc1 [paraquat]
paraquat reductase activity (Hanes plot) (rat NOS1; FIG. 1(d)): increased paraquat reduction with increasing paraquat concentration | reduction of paraquat to its cation radical (600 nm) (rat NOS1; anaerobic, without L-arginine, 37° C., 3 minutes, FIG. 1(c)): direct and progressive reduction of paraquat to its cation radical | increase in LDH release [1]: three-fold | EDRF responses / vessel constriction, conclusion (Rabbit aortic rings; conclusion of Background Example 3): blocks EDRF responses and thereby constricts blood vessels | inhibition of EDRF-induced relaxation, in words (Rabbit aortic rings; increasing paraquat, 15 min before acetylcholine, phenylephrine 1 μM, FIG. 3(a)): dose-dependent inhibition of EDRF-induced relaxation | cell injury (LDH release), single treatment ([2]; 0.1 mM paraquat or cytomix alone, 24 hours, FIG. 4(a)): very little cell injury | paraquat-induced cytotoxicity in activated macrophages ([2]; 0.1 mM paraquat plus cytomix, 24 hours, FIG. 4(a)): potentiated in cytokine-activated macrophages | effect of paraquat on DETA NONOate-induced cell injury ([2]; 0.1 mM paraquat, higher DETA NONOate concentrations, 24 hours, FIG. 4(c)): DETA NONOate-induced cell injury was attenuated by paraquat | cell killing / amelioration of toxicity, conclusion ([2]; conclusion of Background Example 4): kills cells containing NOS but not cells that do not | formation of NO metabolites from DETA NONOate ([3]; FIG. 4(d)): does not alter the formation of NO metabolites from DETA NONOate | percent decrease in nitrite and nitrate compared with percent increase in cell death ([3]; cytomix-activated): percent decrease in nitrite and nitrate was greater than percent increase in cell death | NO production (nitrite and nitrate) ([3]; cytomix-activated, FIG. 4(b)): significantly attenuated NO production | NOS2 expression (NOS2): not affected | aconitase activity (aconitase; paraquat 0.1 mM plus 250 μM DETA NONOate): not seen in the paraquat/DETA NONOate group | aconitase activity (aconitase; paraquat 0.1 mM plus cytomix): a decrease in aconitase activity is seen | adverse effect (squamous cell carcinoma): complicating oral ulcerations | tumor regression (squamous cell carcinoma; seven days): tumor is found to have regressed | tumor regression (solid tumor): tumor regresses and is not longer detectable
